Data published in patent US10034853B2, “PPAR α/γ dual agonist and its application” (Shanghai University of Traditional Chinese Medicine, priority 2013, dated 2018).
“Also recorded” adds a separate entry of the source. Where two headings read alike, the source gives them in different places.

Legend:
[1] = target: T1, PPAR γ (Mus musculus, UniProt P37238); experiment: Dual-luciferase reporter gene assay, PPAR γ transcriptional activity in 293T cells; format: cell-based; conditions: for transcription activity on PPAR γ relative to compound A: 293T reporter assay
T1 construct: pCMX-Gal-mPPAR γ LBD plasmids; expressed in transfected cells; host or cells: 293T cells (ATCC)
T1 sequence (P37238 238-503 limits assumed): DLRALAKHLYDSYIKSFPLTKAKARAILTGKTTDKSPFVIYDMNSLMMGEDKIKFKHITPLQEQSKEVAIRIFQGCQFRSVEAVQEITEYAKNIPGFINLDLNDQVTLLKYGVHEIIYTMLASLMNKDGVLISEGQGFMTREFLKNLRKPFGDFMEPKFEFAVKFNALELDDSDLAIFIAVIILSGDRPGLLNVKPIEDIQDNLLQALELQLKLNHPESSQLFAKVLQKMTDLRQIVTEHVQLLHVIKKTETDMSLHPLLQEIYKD
Protocol: Reporter gene assay was used to detect the impacts of the compounds A, B and C on the transcriptional activities of PPAR γ and PPAR α. The inventors used the PPAR-α, α-LBD, γ and γ-LBD plasmids to detect the impacts of bavachinin on transcription activities of these two PPAR subtype. All the transfections were added to 293T cells (ATCC) overnight and then removed. The positive agonists or the test compounds were diluted in fresh media, and then added into the cells. After incubating for another 24 hours, the cells were harvested to detect luciferase activity.
293T cells were cultured in Dulbecco's modified Eagle's medium (DMEM) with 10% fetal bovine serum and 1% Penicillin/Streptomycin anti-DMEM high glucose medium at 37° C. and 5% CO2. 293T cells in log phase were seeded into 48-well plate with the cell density of 1×10^5˜2×10^5 cells/mL.
(§1) pCMX-Gal-mPPAR γ LBD plasmids, Gal4 reporter vector MH100×4-TK-Luc recombinant plasmids and renilla luciferase internal reference plasmids; PPAR α-LBD plasmids; PPAR γ plasmids; PPAR α plasmids.
When the cells grew to a density of 50 to 80% after seeded in plate overnight, it's good to carry out the transfection. All the transfections, which included 10 μg of total plasmids and 15 μL FuGENE-HD transfection reagent per mL of DMEM, were placed at room temperature for 15 minutes and then added to 293T cells (ATCC) overnight and then removed.
After incubating overnight, the compound A or B or C or positive PPAR γ/α agonists rosiglitazone (as the specific agonistic ligand of PPAR γ) or WY14643 (as the specific agonistic ligand of PPAR α) with different concentrations diluted by complete medium (2, 5, 10, 25, 50 μmol/L) were added into cells. The final concentration of positive agonists was 20 μmol/L).
(§2) After 24 hours, cells were washed twice with PBS to remove the remaining cell culture medium; 65 μL lysis buffer was added into each well and oscillated by the shaker for 15 minutes until cell lysis was complete. Finally the cell lysate was transferred into a 1.5 mL centrifuge tube; The cell lysate was centrifuged at 5000 rpm for 5 minutes and then 10 μL supernatant was taken to a new centrifuge tube for testing.
(§3) We conducted the luciferase reporter assay using Dual-Luciferase Reporter Assay System (Promega, USA). The transfection efficiency was normalized using the internal reference renilla luciferase activity. All transfection experiments were independently repeated for at least three times, with each experimental group having at least two deputy holes.
(§4) The Bio-Tek, Synergy HT multifunctional microplate reader was used to detect the fluorescence intensity of firefly and renilla. After normalizing via the internal reference renilla luciferase activity, the relative luciferase activity was expressed by the ratio of the fluorescence intensity of firefly luciferase and renilla luciferase.
(§5) Data were expressed as mean±standard error of mean (SEM). One-way ANOVA was used to analyze statistically differences between groups with LSD test for multiple comparisons using SPSS 16.0. The EC50 values were calculated using GraphPad Prism 5.0. A P value≤0.05 was regarded as statistically significant different.

[2] = target: T2, PPAR α (Homo sapiens, UniProt Q07869); experiment: Dual-luciferase reporter gene assay, PPAR α transcriptional activity in 293T cells; format: cell-based; conditions: for EC50: 293T cells, luciferase reporter, 24 hours incubation; for transcription activity on PPAR α relative to compound A: 293T reporter assay
T2 construct: PPAR α-LBD plasmids; expressed in transfected cells; host or cells: 293T cells (ATCC)
T2 sequence (Q07869 239-466 limits assumed): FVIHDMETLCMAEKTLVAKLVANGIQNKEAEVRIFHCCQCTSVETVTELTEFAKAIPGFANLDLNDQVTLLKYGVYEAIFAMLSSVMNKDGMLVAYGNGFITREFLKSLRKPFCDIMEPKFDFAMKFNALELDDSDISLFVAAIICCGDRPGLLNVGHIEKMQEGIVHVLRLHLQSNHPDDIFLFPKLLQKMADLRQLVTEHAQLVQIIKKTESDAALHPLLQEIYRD
Protocol: The inventors used the PPAR-α, α-LBD, γ and γ-LBD plasmids to detect the impacts of bavachinin on transcription activities of these two PPAR subtype. […] The positive agonists or the test compounds were diluted in fresh media, and then added into the cells. After incubating for another 24 hours, the cells were harvested to detect luciferase activity.
as §1
When the cells grew to a density of 50 to 80% after seeded in plate overnight, it's good to carry out the transfection.
The final concentration of positive agonists was 20 μmol/L).
as §2, §3, §4, §5

[3] = tested on: PPAR α/γ target genes in HepG2 cells; experiment: Real-time PCR of PPAR α/γ target genes in HepG2 cells; format: cell-based; conditions: 24 hours, 25 μM (stated for compound A); for expression of PPAR α/γ target genes (GLUT4, CD36, LPL, Fasn, ACO): β-actin reference
Protocol: Used Real-time fluorescence quantitative PCR (Real-time PCR) to detect how the compounds A, B and C regulate the expression of PPAR γ/α-related target genes in liver HepG2 cells.
HepG2 cells was grown in Dulbecco's modified Eagle's medium (DMEM, HyClone) with 10% fetal bovine serum (FBS, HyClone) and 1% Penicillin/Streptomycin (Gibco) at 37° C. and 5% CO2. HepG2 cells at logarithmic growth phase were plated in 12-well plates with the cell density was 5×10^4 cells/mL, and then were treated by compound A for 24 hours. Quantitative PCR analysis was performed using β-actin as an endogenous reference.
When the density of HepG2 cells was grown about 60%, compound A (dissolved in DMSO as a stock solution) diluted with complete medium was added into cells. The final concentration was 25 μM (μmol/L).
After 24 hours, total RNA of treated HepG2 cells was isolated using TRIzol reagent (Takara, Japan) according to the manual.
The total RNA was reversely transcribed to cDNA applying the reverse transcription kit (Thermo, Mass., USA). We established 20 μL reverse transcription reaction system according to Table 2. The reaction system was mixed and placed at room temperature (25° C.) for 5 minutes, incubated at 42° C. for 1 hour, incubated at 70° C. for 5 minutes. cDNA was stored at −20° C.
All primers were designed by the Prime 3.0 software. Briefly, after an initial denaturation at 95° C. for 10 minutes, the cDNA was amplified by 40 cycles of PCR (95° C., 15 seconds; 60° C., 60 seconds). All experiments were repeated at least three times independently.

[4] = tested on: db/db mice; experiment: Blood glucose and glucose tolerance in db/db mice; format: in vivo; conditions: for reduction of fasting blood glucose compared with vehicle: after 6 days treatment, intragastric
Protocol: Mice were fasted 8 hours before subjected to a dose of 1 g glucose per kg body weight. Blood was taken from tail and measured at 0, 15, 30, 60 and 90 minutes. The data were expressed with means±SE, n=9 for each group.
The db/db mice with leptin receptor mutation begin to show the symptoms of obesity, hyperlipidemia, insulin resistance, hyperglycemia and others at 4 weeks. This is an ideal kind of mice model for obese diabetic mice.
The db/db mice were kept in polycarbonate cages under regulated temperature (22-23° C.) and controlled humidity (50%-60%) with 12-hour light/12-hour dark cycle. All the mice were allowed to adapt to the standard housing conditions. Mice and food were weighed regularly to investigate the changes in body weight and food intake.
During the experimental period, the eight-week old db/db mice were treated with water and a normal standard cylindrical diet. […] An intraperitoneal glucose tolerance test (IPGTT) was carried out after one week of treatment. Mice were fasted 8 hours before subjected to a dose of 1 g glucose per kg body weight. Blood was taken from tail at 0, 15, 30, 60, and 90 minutes. After 11 days of treatment, 0.75 U/kg body weight of insulin was injected intraperitoneally to perform intraperitoneal insulin tolerance test (IPITT). Blood was taken from tail at 0, 15, 30, 60, 90 and 120 minutes. After 20 days, all the db/db mice were anaesthetized by pentobarbital sodium after 8-hour fast. Blood and tissues were collected and stored at −80° C. for the further analysis.

[5] = tested on: 3T3-L1 cells; experiment: 3T3-L1 preadipocyte differentiation (oil red O staining); format: cell-based; conditions: for adipocyte differentiation activity relative to compound A: 25 μM vs compound A at 5 μM
Protocol: 3T3-L1 fibroblast cell line is widely used for adipocyte differentiation models. […] For adipocyte differentiation, 3T3-L1 cells were seeded into 12-well plate to full confluence for 2 days and then incubated with completed medium containing 10 μg/mL human insulin (Sigma-Aldrich), 1 μM dexamethasone (Sigma-Aldrich) and the test compounds at 37° C. and 7.5% CO2. After 2 days of induction, the medium was replaced with a maintenance medium (completed medium including 10 μg/mL insulin and the test compounds) for additional 2 days (Day 0-Day 2). Thereafter, the medium was refreshed with fresh medium with the test compounds for 4 days (Day 2-Day 6). The test compounds dissolved in dimethylsulfoxide (DMSO) was diluted by the completed medium (final DMSO concentration, 0.1%) at indicated concentration. rosiglitazone was used as a positive compound. The 3T3-L1 cells were washed with PBS twice, fixed with 10% formalin at room temperature for 10 minutes and then stained with oil red O (Sigma-Aldrich, St. Louis, Mo.) at 37° C. for 30 minutes. The pictures were taken using an Olympus microscope (Tokyo, Japan).

[6] = tested on: diet-induced obese (dio) C57BL/6J mice; experiment: Lipid disorders in diet-induced obese (dio) mice; conditions: for effect on food intake / reduction of serum triglyceride (TG) levels compared to HFD group / effect on body weight: 3-week treatment; for reduction of serum triglyceride (TG) levels compared to HFD group: compound A 2 g per kg HFD; for effect on body weight: vs HFD group
Protocol: For the therapy study, the six-week old female C57BL/6J mice were fed with high-fat diet (HFD, 60% of calories from fat) for 12 weeks to induce obesity and insulin resistance (DIO). The mice were divided into 3 groups according to body weight and fasting blood glucose (n=9, 7, 7, 7). […] After 21 days of dosing, we took blood from heart of anaesthetized fasted 10-hour mice. Tissues were collected and stored at −80° C.
Serum was used for all the analysis of blood parameters.

[7] = 100 mg/kg/d stated for compound A
[8] = 293T cells, luciferase reporter, 24 hours incubation, read-out: EC50 (μM) PPAR γ

With `COc1cc2c(cc1CC=C(C)C)C(=O)C[C@@H](c1ccc(O)cc1)O2` [compound A, bavachinin] the EC50 [1] was 8.6 µM, the “PPAR γ transactivation compared with rosiglitazone (ROS)” value ([1]; compound at 25 μM vs rosiglitazone at 20 μM) was “nearly equal to PPAR γ agonist rosiglitazone (ROS) at 20 μM” and the EC50 ([2]; EC50 (μM) PPAR α) was 17.3 µM. For the same molecule, the “PPAR α transactivation compared with full agonist WY14643” value ([2]; WY14643 final concentration 20 μmol/L) was “more transactivation”, the “expression of PPAR α/γ themselves” value [3] was “did not effect” and the “expression of PPAR α/γ target genes (GLUT4, CD36, LPL, Fasn, ACO)” value (“expression of PPAR α/γ target genes” for short) [3] was “significantly increased”. The “glucose tolerance (IPGTT)” value ([4]; 100 mg/kg/d, 1 g/kg glucose after 8 hours fast) was “improved”, the “reduction of fasting blood glucose compared with vehicle” value (“reduction of fasting blood glucose” below) [4, 7] was “about 20%” and the 3T3-L1 adipocyte differentiation ([5]; 1 μM, with insulin and dexamethasone, 6 days, oil red O) was “induced 3T3-L1 cell differentiation and lipid droplets formation”. The 3T3-L1 adipocyte differentiation ([5]; 10 μM, with insulin and dexamethasone, 6 days, oil red O) was “almost fully differentiated”, the 3T3-L1 adipocyte differentiation ([5]; 25 μM, with insulin and dexamethasone (FIG. 5C)) was “induced to differentiate into adipocytes” and the “potency on adipocyte differentiation relative to rosiglitazone” value ([5]; 3T3-L1 cells) was “as potent as rosiglitazone”. The “effect on food intake” value [6] was “without affecting; also recorded: did not affect”, the “reduction of serum triglyceride (TG) levels compared to HFD group” value (shortened to “reduction of serum triglyceride”) [6] was “around 23%” and the “effect on body weight” value [6] was “without affecting; also recorded: did not increase”. The “serum TG levels in contrast to HFD group” value ([6]; FIG. 6D) was “significantly reduced”.
`CC(=O)Oc1ccc(C2CC(=O)c3cc(CC=C(C)C)c(OC(C)=O)cc3O2)cc1` (stereo not drawn) [compound B] was tested, and the EC50 [1, 8] was 18.8 µM, the “transcription activity on PPAR γ relative to compound A” value [1] was “less than that of compound A” and the EC50 ([2]; read-out: EC50 (μM) PPAR α) was 28.5 µM. For the same molecule, the “transcription activity on PPAR α relative to compound A” value [2] was “less than that of compound A”, the “expression of PPAR α/γ themselves” value [3] was “did not effect” and the “expression of PPAR α/γ target genes” value [3] was “significantly increased”. The “reduction of fasting blood glucose” value [4, 7] was “about 10%”, the “adipocyte differentiation activity relative to compound A” value ([5]; 3T3-L1 cells) was “nearly equal to the activity of compound A at 5 μM” and the “effect on food intake” value [6] was “without affecting”. For the same molecule, the “reduction of serum triglyceride” value [6] was 20% and the “effect on body weight” value [6] was “without affecting”.
In the case of `COc1cc2c(cc1CC=C(C)C)C(=O)CC(c1ccc(OC(C)=O)cc1)O2` (stereo not drawn) [compound C], the EC50 [1, 8] is reported as 12.3 µM, the “transcription activity on PPAR γ relative to compound A” value [1] is reported as “less than that of compound A” and the EC50 ([2]; read-out: EC50 (μM) PPAR α) is reported as 12.9 µM. For the same molecule, the “transcription activity on PPAR α relative to compound A” value [2] was “less than that of compound A”, the “expression of PPAR α/γ themselves” value [3] was “did not effect” and the “expression of PPAR α/γ target genes” value [3] was “significantly increased”. The “reduction of fasting blood glucose” value [4, 7] was roughly 8%, the “adipocyte differentiation activity relative to compound A” value ([5]; 3T3-L1 cells) was “nearly equal to the activity of compound A at 5 μM” and the “effect on food intake” value [6] was “without affecting”. The “reduction of serum triglyceride” value [6] was 12% and the “effect on body weight” value [6] was “without affecting”.
For `CN(CCOc1ccc(CC2SC(=O)NC2=O)cc1)c1ccccn1` (stereo not drawn) [rosiglitazone, reference compound], the “reduction of fasting blood glucose” value ([4]; rosiglitazone 5 mg/kg/d) was 5%.
